How the values were obtained:
PC12 cells = experiment: PC12 damage by BV2-conditioned medium; type: cell-based; details: medium of Dectin-1-deficient BV2 cells exposed to Aβ42, PC12 treated 24 h
Experimental: To test cellular apoptosis, TUNEL assay was performed (C1098, Beyotime, Shanghai, China). For cells: Properly treated BV2 cells were fixed with 4% PFA for 20 min and washed with PBST for 3 times. Then cells were incubated with TUNEL test solution (5 μl of TdT enzyme and 45 μl of fluorescent labeling solution) under dark condition for 1h. After washing with 1xPBS for three times, nuclei were stained with DAPI. The apoptotic cells (green fluorescence) were observed under fluorescent microscopy and calculated as a percentage of the total number of cells. For brain tissue: Processed tissue samples were incubated with 50 μl of TUNEL reaction mixture for 1h at 37℃ under dark conditions. Color developed in DAB coloring solution. Apoptosis index (brown color) in the hippocampus area were measured using this formula: apoptosis index (%) = (apoptotic neurons / total neurons) × 100%.

[1] = tested on: Tnfa, Il1b, IL-6, Cox2, and Inos; experiment: mRNA levels of inflammatory genes (real-time qPCR); type: cell-based; details: Aβ42-stimulated, normalized to GAPDH
Experimental: Total RNA was isolated from cultured BV2 cells and brain tissues using TRIzol reagent (Thermo Fisher, 15596026) by standard techniques. Total RNA concentration was measured by a spectrophotometer. Then, PrimeScript RT-reagent Kit (Takara, RR037A) was used for cDNA synthesis. Real-time PCR amplification reactions were carried out on CFX96 Touch Real-Time PCR Detection System (Bio-Rad) using TB Green Premix Ex Taq II (Takara; RR820A). Quantification of the mRNA expression was calculated by […] method with GAPDH normalization. Primer sequences used in this study were presented in Supplementary Table S2.
(§1) Figure 5 Dectin-1 interference prevents Aβ42-induced inflammatory response in BV2 cells. (A) Time-course of Dectin-1-Syk interaction. […] (B) HEK-293T cells were transfected with Flag-tagged Dectin-1 (Flag-D1) and HA-tagged Dectin-1 (HA-D1). […] (C) Time-course of Syk phosphorylation. […] Total proteins were extracted and probed for p-Syk and Syk levels. GAPDH was used as loading control. (D) Dose-course of Syk phosphorylation. […] Total proteins were used to measure p-Syk and Syk levels. GAPDH was used as loading control. (E) Determination of Dectin-1 interference efficiency in BV2 cells. Total proteins were extracted and probed for p-Syk and Syk levels. […] (H) TNFα release in cell supernatant measured by ELISA. (I) IL-1β release in in cell supernatant measured by ELISA. […]

Syk/NF-κB = Syk/NF-κB activation in BV2 cells (western blot); type: cell-based; details: Aβ42-stimulated BV2 cells, siRNA targeting Dectin-1
From the text: (§2) GAPDH was used as loading control. […] GAPDH was used as loading control. […] GAPDH was used as loading control. […] GAPDH was used as loading control.

TNF-α and IL-1β = TNF-α and IL-1β release from BV2 cells (ELISA); type: cell-based; details: Aβ42-stimulated BV2 cells, cell supernatant
Experimental: After behavior test, blood samples from each group of mice were collected. Serum was obtained by centrifuge at 12000 rpm for 10 min and the levels of TNF-α and IL-1β were measured using ELISA kits. Briefly, samples were added to the wells with a biotin-conjugated antibody specific to TNF-α or IL-1β. Then, Avidin conjugated to Horseradish Peroxidase (HRP) was added to each microplate well and incubated. […] Finally, stop solution was added to stop the reaction and the color change were measured at a wavelength of 450 nm by a microplate reader. The concentration of TNF-α or IL-1β in the samples were then determined by comparing the OD value of the samples to the standard curve.
as §1, with “cells.” for “cells. Total proteins were extracted and probed for p-Syk and Syk levels.”

NF-κB p65 = experiment: p65 nuclear translocation in BV2 cells (immunofluorescence); type: cell-based; details: Aβ42-stimulated BV2 cells, siRNA targeting Dectin-1
Experimental: Properly treated BV2 cells were fixed in 4% paraformaldehyde (PFA) for 15-20 min. The BV2 cells were then incubated with 1x PBS containing 0.1% Triton X-100 (PBST) for 20 min to increase membrane permeability. After block with 1% BSA for 1 h at room temperature, the primary antibody (1:100) was added and incubate overnight at 4 °C. Next day, the cells were washed three times with 1xPBS and incubated with fluorophore conjugated secondary antibody (1:500) for 2h. Finally, one drop of antifade mounting medium with DAPI (P0131, Beyotime) was added to stain the Nuclei. Then, sections were observed and analyzed under a Nikon A1 confocal microscope.
as §1, with “cells.” for “cells. Total proteins were extracted and probed for p-Syk and Syk levels.”

BV2 cells = experiment: Microglia phagocytosis and clearance of FITC-Aβ42 (flow cytometry); type: cell-based; details: 20 μM FITC-Aβ42, 2 h (phagocytosis) then 24 h in FITC-Aβ-free medium (clearance), Dectin-1-deficient BV2 cells
Experimental: After incubation, the medium containing FITC-Aβ was removed, and the cells were washed three times with 1xPBS. BV2 cells were collected by centrifugation at 3000rpm for 5min, and resuspended in ice-cold 1xPBS solution. […] Cells were cultured in the FITC-Aβ-free medium for another 24 hours. Collect the cells and detect the level of intracellular Aβ by flow cytometry.

Syk = Syk phosphorylation in BV2 cells (western blot); type: cell-based; details: 20 µM Bio-Aβ42, 45 min
From the text: as §2

Dectin-1 [2] = experiment: Pull-down with Bio-Aβ42 from BV2 lysates; type: binding; details: 100 µL of 20 μM biotinylated Aβ42 on streptavidin-agarose beads, lysate 24 h at 4°C; biotin control; Trem2 positive control
Experimental: Lysates prepared from microglia cells and mouse brain tissues were then added to the streptavidin-agarose beads with biotinylated- Aβ42. The mixture was incubated for 24h at 4°C under gentle rocking. Samples were then spun and washed 3 times. Then, 5x loading buffer was added in the elution buffer and boiled for 10min, and the samples were used for western blot analysis. Total lysates were used as an input control.
Nuclei are counterstained with DAPI (blue) [scale bar = 5 μm]. (B) Bio-Aβ42 is added to streptavidin-agarose beads and incubated. Biotin alone was used as control. Lysates prepared from BV2 cells were added to beads. The eluent was loaded onto a polyacrylamide gel for western blot analysis. Total lysates were used as input controls. Trem2 was used as a positive control. (C) The Dectin-1-APP/ β-amyloid interaction is analyzed by co-immunoprecipitation in the brains of WT and model mice. […] Mean KD constant derived from five separate experiments. (E) 3D binding model of dectin-1 and amyloid beta peptide. The backbones of dectin-1 and amyloid beta peptide are shown as cartoons. The residues in dectin-1 are shown as cyan sticks, whereas the residues in amyloid beta-peptide are shown as wheat sticks. The hydrogen bonds are depicted as red dashed lines and the salt bridges are depicted as blue dashed lines.

Dectin-1 [3] = experiment: Co-IP of APP/β-amyloid and Dectin-1 in brain lysates; type: binding, mice; details: lysates from WT and Aβ42 brain tissues, Protein A magnetic beads
Experimental: The triggering receptor expressed on myeloid cells 2 (Trem2) is a microglial surface receptor genetically linked to the risk of AD [28]. Most Aβ functions in microglia are thought to be mediated by its binding to Trem2 [29]. […] Trem2 is the currently reported microglia receptor that can directly bind to Aβ, and we used it as a positive control in this experiment. […] Next, we performed a protein interaction analysis using Co-IP. APP/β-amyloid was added to Protein A magnetic beads as a bait protein, and lysates from WT and Aβ42 brain tissues were added. […] In turn, we could also capture the expression of APP/β-amyloid protein using Dectin-1 as a bait protein (Figure 6C). […] Therefore, we used surface plasmon resonance (SPR) to identify direct Aβ42-Dectin-1 interactions at the molecular level. […] Nuclei are counterstained with DAPI (blue) [scale bar = 5 μm]. (B) Bio-Aβ42 is added to streptavidin-agarose beads and incubated. Biotin alone was used as control. Lysates prepared from BV2 cells were added to beads. The eluent was loaded onto a polyacrylamide gel for western blot analysis. Total lysates were used as input controls. Trem2 was used as a positive control. (C) The Dectin-1-APP/ β-amyloid interaction is analyzed by co-immunoprecipitation in the brains of WT and model mice. […] Mean KD constant derived from five separate experiments. (E) 3D binding model of dectin-1 and amyloid beta peptide. […]

For “siD1: siRNA targeting Dectin-1 gene; sense 5’-GGAGAAAUCCAGAGGAGAATT-3’, antisense 5’-UUCUCCUCUGGAUUUCUCCTT-3’ (chemistry not given here)”, which “PC12 damage by medium of siD1-treated microglia” value (PC12 cells) is on record?
The value was “failed to damage PC12 cells”.

What about the “mRNA levels of inflammatory genes Tnfa, Il1b, IL-6, Cox2, Inos” value [1] of the same substance?
Its value is “significantly reversed”.

What about the “Syk/NF-κB activity after Dectin-1 knockdown” value (Syk/NF-κB) of the same substance?
Its value is “this increased activity of Syk/NF-κB was not seen in Dectin-1-deficient BV2 cells”.

And the “TNF-α and IL-1β release after Dectin-1 knockdown” value (TNF-α and IL-1β)?
The value was “decreased the release of the inflammatory factors TNF-α and IL-1β”.

And the “p65 nuclear translocation after Dectin-1 knockdown” value (NF-κB p65)?
The value was “remarkably inhibited Aβ42-induced p65 nuclear translocation”.

“FITC-Aβ42: Aβ42 linked with a FITC label” was tested. Which “phagocytosis and clearance of FITC-Aβ42, effect of Dectin-1 deficiency” value (BV2 cells) did it give?
Its value is “did not affect the fluorescence intensity of Aβ”.

Which “Syk phosphorylation by Bio-Aβ42” value (Syk) does the source give for “Bio-Aβ42: biotin-labeled Amyloid beta peptide, obtained from GL Biochem” here?
Its value is “retained the Dectin-1 activating activity of Aβ42, as evidenced by the increased phosphorylation of Syk”.

What about the “binding to Dectin-1 (pull-down/Co-IP)” value (Dectin-1 [2]) of the same substance?
The value was “Co-IP analysis further confirmed this result”.

With “APP/β-amyloid: APP/β-amyloid protein used as bait with lysates from WT and Aβ42 brain tissues” as the substance, how does the “binding to Dectin-1 (co-IP)” value (Dectin-1 [3]) read?
The value was “binds to the Dectin-1 protein in these lysates”.

Source: article PMC10321287, “β-amyloid binds to microglia Dectin-1 to induce inflammatory response in the pathogenesis of Alzheimer's disease” (International Journal of Biological Sciences, 2023)
